Consider ten compounds from PubChem BioAssay (NCI).

Several values for one entry are separate records, joined by “and”; a condition that tells them apart may be missing. Equal entries are not always repeated.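 Five concentrations, 48 hours, 96-well plates. At the GI50, growth is halved. TGI is the concentration that stops growth completely.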

Some test systems named below: A549 NSCLC; BT-549 breast; EKVX NSCLC; HCT-116 colon; HOP-92 NSCLC; HT29 colon; M14 melanoma; NCI-H23 lung; NCI-H522 lung; RPMI-8226 leukemia; RXF 393 renal; SNB-19 CNS; T-47D breast; CAKI-1 renal; UO-31 renal; LOX IMVI melanoma.
Common to all, as to assay: growth of human tumour cells (NCI), 48 h

Consider `CCNC1=C(NC(=O)c2ccc(OC)cc2)C(=O)c2ccccc2C1=O`, for which the TGI is above 100 µM in the test on A549 NSCLC; above 100 µM in the test on BT-549 breast; above 100 µM in the test with EKVX NSCLC; above 100 µM with HCT-116 colon; above 100 µM with HOP-92 NSCLC; 76.9 µM in the test on HT29 colon. Besides, the TGI with M14 melanoma is 55.9 µM; in the test with NCI-H23 lung, above 100 µM; with NCI-H522 lung, above 100 µM; with RPMI-8226 leukemia, above 100 µM; in the test with RXF 393 renal, 88.2 µM; with SNB-19 CNS, above 100 µM. The compound also showed a TGI with T-47D breast above 100 µM.
Regarding `Brc1ccc(N=Nc2ccc3ccccc3n2)cc1`, the TGI was above 100 µM with A549 NSCLC; 60.5 µM in the test on BT-549 breast; 47 µM in the test on CAKI-1 renal; above 100 µM with EKVX NSCLC; 30.1 µM in the test with HCT-116 colon; above 100 µM with HOP-92 NSCLC. Besides, the TGI is above 100 µM in the test on HT29 colon; above 100 µM in the test on M14 melanoma; above 100 µM in the test with NCI-H23 lung; 21.4 µM in the test with NCI-H522 lung; above 100 µM in the test with RPMI-8226 leukemia; above 100 µM in the test on RXF 393 renal. The TGI in the test with SNB-19 CNS is 37.1 µM; in the test on T-47D breast, above 100 µM; with UO-31 renal, 27.5 µM.
With `CN(C(=O)c1cc2c(s1)sc1c(=O)n(C)c3ccccc3c12)c1ccccc1`, the TGI in the test on A549 NSCLC was above 100 µM; in the test with BT-549 breast, above 100 µM; in the test with CAKI-1 renal, 40.8 µM; in the test on EKVX NSCLC, above 100 µM; in the test on HCT-116 colon, above 100 µM; in the test with HOP-92 NSCLC it was above 100 µM. Also, the TGI in the test on HT29 colon is above 100 µM; with LOX IMVI melanoma, above 100 µM; in the test on M14 melanoma, above 100 µM; in the test on NCI-H23 lung, 69.5 µM; in the test on NCI-H522 lung it was above 100 µM; in the test with RXF 393 renal, above 100 µM. For the same compound, the figures for the TGI in the test on SNB-19 CNS, with T-47D breast and with UO-31 renal were above 100 µM, above 100 µM and 24.5 µM, respectively.
With `CC(C)N(C(=O)C12C3(C(=O)C(C)(C)C)C4C5(C#N)C3C1(C(=O)C(C)(C)C)C5C42C(=O)C(C)(C)C)C(C)C` (stereo not drawn), the TGI in the test with A549 NSCLC, in the test with BT-549 breast, in the test on CAKI-1 renal, with EKVX NSCLC, with HCT-116 colon and in the test on HOP-92 NSCLC was above 100 µM each time. The TGI in the test with HT29 colon, in the test on LOX IMVI melanoma, in the test with M14 melanoma, in the test on NCI-H23 lung, in the test with NCI-H522 lung and in the test with RXF 393 renal was above 100 µM throughout. The TGI in the test on SNB-19 CNS, with T-47D breast and in the test with UO-31 renal was above 100 µM in each case.
Turning to `N#CCN1CCN(CC#N)CCN(CC#N)CCN(CC#N)CC1`, the TGI in the test on A549 NSCLC, in the test on BT-549 breast, in the test with CAKI-1 renal, with HCT-116 colon, in the test with HOP-92 NSCLC and in the test with HT29 colon was above 100 µM throughout. The TGI with LOX IMVI melanoma, with M14 melanoma, with NCI-H23 lung, in the test with NCI-H522 lung, in the test with RPMI-8226 leukemia and with RXF 393 renal was above 100 µM throughout. Further, the TGI in the test with SNB-19 CNS, with T-47D breast and in the test on UO-31 renal was above 100 µM each time.
In the case of `Cn1c(-c2cccs2)cc(-c2ccsc2)c1-c1cccs1`, the TGI in the test on A549 NSCLC, with BT-549 breast, in the test with CAKI-1 renal, in the test with EKVX NSCLC, with HCT-116 colon and in the test on HOP-92 NSCLC was above 100 µM in each case. Also, the TGI in the test on HT29 colon, in the test on M14 melanoma, with NCI-H23 lung, in the test with NCI-H522 lung, with RXF 393 renal and in the test on SNB-19 CNS was above 100 µM throughout. For the same compound, the TGI in the test with T-47D breast is 73.2 µM; with UO-31 renal, above 100 µM.
On to `COC(=O)/C=C1/OC(c2ccc(C)cc2C)=CC1=O`, for which the TGI with BT-549 breast was 29.9 µM; in the test with CAKI-1 renal it was 34.5 µM; with EKVX NSCLC, above 100 µM; with HCT-116 colon, 24.1 µM; with HOP-92 NSCLC, 45.6 µM; in the test with HT29 colon it was 18.8 µM. The TGI in the test on LOX IMVI melanoma is 17.6 µM; in the test on M14 melanoma it was 31.1 µM; in the test on NCI-H23 lung, 61 µM; in the test on NCI-H522 lung, 43.3 µM; in the test with RPMI-8226 leukemia, above 100 µM; with RXF 393 renal, 24.9 µM. Moreover, the TGI in the test with T-47D breast is 38.4 µM; with UO-31 renal it was 30.5 µM.
For `Cc1ccc(S(=O)(=O)NC(=O)NCC(N)=O)cc1`, the TGI in the test on A549 NSCLC, in the test on BT-549 breast, in the test on HCT-116 colon, in the test with HOP-92 NSCLC, in the test with HT29 colon and with LOX IMVI melanoma was above 100 µM throughout. In addition, the TGI in the test with M14 melanoma, in the test with NCI-H23 lung, in the test with NCI-H522 lung, in the test with RPMI-8226 leukemia, with RXF 393 renal and with SNB-19 CNS was above 100 µM in each case. In addition, the TGI in the test on T-47D breast and in the test on UO-31 renal was above 100 µM each time.
Turning to `O=S1(=O)c2ccccc2-c2nccc3ccnc1c23`, the TGI in the test on BT-549 breast was 35.4 µM; in the test with CAKI-1 renal, 85.9 µM; in the test on EKVX NSCLC, above 100 µM; with HCT-116 colon, above 100 µM; with HOP-92 NSCLC, above 100 µM; in the test with HT29 colon, 23.2 µM. Besides, the TGI in the test with LOX IMVI melanoma is above 100 µM; with M14 melanoma, above 100 µM; in the test on NCI-H23 lung, 44 µM; with NCI-H522 lung, 29.9 µM; in the test with RPMI-8226 leukemia it was 85.6 µM; in the test on RXF 393 renal, above 100 µM. For the same compound, the TGI was 91.3 µM in the test on SNB-19 CNS, above 100 µM with T-47D breast and 59 µM with UO-31 renal.
For `C=CCN1C(=O)/C(=C/c2ccc(OC)cc2)N=C1SC1OC(COC(C)=O)C(OC(C)=O)C(OC(C)=O)C1OC(C)=O` (stereo not drawn), the TGI was above 100 µM in the test on A549 NSCLC; 38.1 µM and 96.1 µM with BT-549 breast; 33 µM and > 100 µM in the test with CAKI-1 renal; 46 µM and > 100 µM with EKVX NSCLC; above 100 µM with HCT-116 colon; 46.4 µM and 59.4 µM with HOP-92 NSCLC. In addition, the TGI with HT29 colon was 22.4 µM; in the test on LOX IMVI melanoma, above 100 µM; in the test with M14 melanoma, above 100 µM; with NCI-H23 lung, above 100 µM; with NCI-H522 lung, above 100 µM; with RPMI-8226 leukemia, above 100 µM. The TGI in the test on RXF 393 renal is 46.5 µM and 89.5 µM; in the test on SNB-19 CNS, above 100 µM; with T-47D breast, 67.5 µM. Moreover, the GI50 with CAKI-1 renal was 16 µM and > 100 µM; in the test on LOX IMVI melanoma it was 21.1 µM and 43.1 µM; in the test on NCI-H522 lung, 5.2 µM and 16.4 µM.
